# Experimental data: patent US20250114338A1, “TETRAHYDRO-PYRIDO[3,4-b]INDOLE ESTROGEN RECEPTOR MODULATORS AND USES THEREOF” (Genentech, Inc., priority 2014, published 2025)
# System: ER-alpha MCF7
# Test: ER-alpha MCF7 HCS EC50; stated as measured by in vitro cell proliferation assays of Examples 902 and 903
# Format: cell-based
# Conditions: Homo sapiens, MCF7, MCF7 cells; Table 2
# Outline: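 MCF7 cells seeded 1000-2000 cells/well for 16 h, then treated with nine-point 1:2 DMSO dilution series in quadruplicate at 37 °C, 5% CO2 for 4 days. Viable cells quantified by CellTiter-Glo ATP luminescence; EC50 calculated. Controls: fulvestrant at final 100 nM, DMSO 0.2% v/v.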
row,SMILES,EC50
1,"C[C@@H]1Cc2c([nH]c3ccccc23)[C@@H](c2c(F)cc(OCCN3CC(CF)C3)cc2F)N1C[C@@H](CO)C(F)(F)F [Example 318, (S)-2-(((1R,3R)-1-(2,6-difluoro-4-(2-(3-(fluoromethyl)azetidin-1-yl)ethoxy)phenyl)-3-methyl-1,3,4,9-tetrahydro-2H-pyrido[3,4-b]indol-2-yl)methyl)-3,3,3-trifluoropropan-1-ol]",1 nM
2,"C[C@@H]1Cc2c([nH]c3ccccc23)[C@@H](c2c(F)cc(OCCN3CC(CF)C3)cc2F)N1C[C@H](CO)C(F)(F)F [Example 319, (R)-2-(((1R,3R)-1-(2,6-difluoro-4-(2-(3-(fluoromethyl)azetidin-1-yl)ethoxy)phenyl)-3-methyl-1,3,4,9-tetrahydro-2H-pyrido[3,4-b]indol-2-yl)methyl)-3,3,3-trifluoropropan-1-ol]",0.43 nM
3,"C[C@@H]1Cc2c([nH]c3ccccc23)[C@@H](c2ccc(NCCN3CC(CF)C3)cc2)N1S(C)(=O)=O [Example 325, N-[2-[3-(fluoromethyl)azetidin-1-yl]ethyl]-4-[(1R,3R)-3-methyl-2-methylsulfonyl-1,3,4,9-tetrahydropyrido[3,4-b]indol-1-yl]aniline]",1 nM
4,"C[C@@H]1Cc2c([nH]c3ccccc23)[C@@H](c2ccc(NCCN3CC(CF)C3)cc2F)N1CC(C)(F)CO (stereo partly drawn) [Example 327, 2-fluoro-3-((1R,3R)-1-(2-fluoro-4-((2-(3-(fluoromethyl)azetidin-1-yl)ethyl)amino)phenyl)-3-methyl-1,3,4,9-tetrahydro-2H-pyrido[3,4-b]indol-2-yl)-2-methylpropan-1-ol]",0.347 nM
5,"C[C@@H]1Cc2c([nH]c3ccccc23)[C@@H](c2ccc(OCCN3CC(CF)C3)cc2)N1S(=O)(=O)N(C)C [Example 329, (1R,3R)-1-[4-[2-[3-(fluoromethyl)azetidin-1-yl]ethoxy]phenyl]-N,N,3-trimethyl-1,3,4,9-tetrahydropyrido[3,4-b]indole-2-sulfonamide]",1 nM
6,"C[C@@H]1Cc2c([nH]c3ccccc23)[C@@H](c2ccc(OC3CN(CCCF)C3)cc2)N1S(C)(=O)=O [Example 330, (1R,3R)-1-[4-[1-(3-fluoropropyl)azetidin-3-yl]oxyphenyl]-3-methyl-2-methylsulfonyl-1,3,4,9-tetrahydropyrido[3,4-b]indole]",2 nM
7,"CC(C)[S@+]([O-])N1[C@H](c2ccc(OCCN3CC(CF)C3)cc2)c2[nH]c3ccccc3c2C[C@H]1C [Example 332, (1R,3R)-1-(4-(2-(3-(fluoromethyl)azetidin-1-yl)ethoxy)phenyl)-2-((S)-isopropylsulfinyl)-3-methyl-2,3,4,9-tetrahydro-1H-pyrido[3,4-b]indole]",8 nM
8,"CC(C)[S@@+]([O-])N1[C@H](c2ccc(OCCN3CC(CF)C3)cc2)c2[nH]c3ccccc3c2C[C@H]1C [Example 333, (1R,3R)-1-(4-(2-(3-(fluoromethyl)azetidin-1-yl)ethoxy)phenyl)-2-((R)-isopropylsulfinyl)-3-methyl-2,3,4,9-tetrahydro-1H-pyrido[3,4-b]indole]",48 nM
9,"C[C@@H]1Cc2c([nH]c3ccccc23)[C@@H](c2c(F)cc(OC3CN(CCCCCF)C3)cc2F)N1CC(C)(C)F [Example 335, (1R,3R)-1-[2,6-difluoro-4-[1-(5-fluoropentyl)azetidin-3-yl]oxy-phenyl]-2-(2-fluoro-2-methyl-propyl)-3-methyl-1,3,4,9-tetrahydropyrido[3,4-b]indole]",0.442 nM

# Now those with a lower EC50, led by results:
row,EC50,SMILES
1,0.27 nM,"C[C@@H]1Cc2c([nH]c3ccccc23)[C@@H](c2c(F)cc(NCCN3CC(CF)C3)cc2F)N1CC(C)(F)CO (stereo partly drawn) [Example 320, 3-((1R,3R)-1-(2,6-difluoro-4-((2-(3-(fluoromethyl)azetidin-1-yl)ethyl)amino)phenyl)-3-methyl-1,3,4,9-tetrahydro-2H-pyrido[3,4-b]indol-2-yl)-2-fluoro-2-methylpropan-1-ol]"
2,0.222 nM,"C[C@@H]1Cc2c([nH]c3ccccc23)[C@@H](c2c(F)cc(NCCN3CC(CF)C3)cc2F)N1CC(C)(C)F [Example 321, 3,5-difluoro-N-[2-[3-(fluoromethyl)azetidin-1-yl]ethyl]-4-[(1R,3R)-2-(2-fluoro-2-methyl-propyl)-3-methyl-1,3,4,9-tetrahydropyrido[3,4-b]indol-1-yl]aniline]"
3,0.0253 nM,"C[C@@H]1Cc2c([nH]c3ccccc23)[C@@H](c2ccc(NCCN3CC(CF)C3)cc2F)N1CC(C)(C)F [Example 322, 3-fluoro-N-[2-[3-(fluoromethyl)azetidin-1-yl]ethyl]-4-[(1R,3R)-2-(2-fluoro-2-methyl-propyl)-3-methyl-1,3,4,9-tetrahydropyrido[3,4-b]indol-1-yl]aniline]"
4,0.215 nM,"C[C@@H]1Cc2c([nH]c3ccccc23)[C@@H](c2ccc(NCCN3CC(CF)C3)cc2)N1CC(C)(C)F [Example 323, N-[2-[3-(fluoromethyl)azetidin-1-yl]ethyl]-4-[(1R,3R)-2-(2-fluoro-2-methyl-propyl)-3-methyl-1,3,4,9-tetrahydropyrido[3,4-b]indol-1-yl]aniline]"
5,0.198 nM,"CCS(=O)(=O)N1[C@H](c2ccc(OCCN3CC(CF)C3)cc2)c2[nH]c3ccccc3c2C[C@H]1C [Example 324, (1R,3R)-2-ethylsulfonyl-1-[4-[2-[3-(fluoromethyl)azetidin-1-yl]ethoxy]phenyl]-3-methyl-1,3,4,9-tetrahydropyrido[3,4-b]indole]"
6,0.305 nM,"C[C@@H]1Cc2c([nH]c3ccccc23)[C@@H](c2c(F)cc(NCCN3CC(CF)C3)cc2F)N1S(C)(=O)=O [Example 326, 3,5-difluoro-N-[2-[3-(fluoromethyl)azetidin-1-yl]ethyl]-4-[(1R,3R)-3-methyl-2-methylsulfonyl-1,3,4,9-tetrahydropyrido[3,4-b]indol-1-yl]aniline]"
7,0.167 nM,"C[C@@H]1Cc2c([nH]c3ccccc23)[C@@H](c2ccc(NCCN3CC(CF)C3)cc2)N1CC(C)(F)CO (stereo partly drawn) [Example 328, 2-fluoro-3-((1R,3R)-1-(4-((2-(3-(fluoromethyl)azetidin-1-yl)ethyl)amino)phenyl)-3-methyl-1,3,4,9-tetrahydro-2H-pyrido[3,4-b]indol-2-yl)-2-methylpropan-1-ol]"
8,0.236 nM,"C[C@@H]1Cc2c([nH]c3ccccc23)[C@@H](c2c(F)cc(OC3CN([C@H]4C[C@H](O)C4)C3)cc2F)N1CC(C)(C)F [Example 331, 3-[3-[3,5-difluoro-4-[(1R,3R)-2-(2-fluoro-2-methyl-propyl)-3-methyl-1,3,4,9-tetrahydropyrido[3,4-b]indol-1-yl]phenoxy]azetidin-1-yl]cyclobutanol]"
9,0.13 nM,"C[C@@H]1Cc2c([nH]c3ccccc23)[C@@H](c2c(F)cc(OC3CN([C@H]4C[C@@H](O)C4)C3)cc2F)N1CC(C)(C)F [Example 334, (1S,3s)-3-(3-(3,5-difluoro-4-((1R,3R)-2-(2-fluoro-2-methylpropyl)-3-methyl-2,3,4,9-tetrahydro-1H-pyrido[3,4-b]indol-1-yl)phenoxy)azetidin-1-yl)cyclobutanol]"
10,0.263 nM,"C[C@@H]1Cc2c([nH]c3ccccc23)[C@@H](c2cc(F)c(OC3CN(CCCF)C3)c(F)c2)N1CC(C)(C)F [Example 336, (1R,3R)-1-[3,5-difluoro-4-[1-(3-fluoropropyl)azetidin-3-yl]oxy-phenyl]-2-(2-fluoro-2-methyl-propyl)-3-methyl-1,3,4,9-tetrahydropyrido[3,4-b]indole]"
